Publication PMC3648344 (BMC Structural Biology, 2013)

Biological target: T1, ecMnmC (Escherichia coli, UniProt P77182)
T1 construct: gene mnmC; full-length bifunctional MnmC, 668 residues, ~75 kDa monomer; N-terminal His6 tag removed with thrombin; pET30a-LIC, expressed in E. coli BL21(DE3)
T1 sequence (P77182 1-668): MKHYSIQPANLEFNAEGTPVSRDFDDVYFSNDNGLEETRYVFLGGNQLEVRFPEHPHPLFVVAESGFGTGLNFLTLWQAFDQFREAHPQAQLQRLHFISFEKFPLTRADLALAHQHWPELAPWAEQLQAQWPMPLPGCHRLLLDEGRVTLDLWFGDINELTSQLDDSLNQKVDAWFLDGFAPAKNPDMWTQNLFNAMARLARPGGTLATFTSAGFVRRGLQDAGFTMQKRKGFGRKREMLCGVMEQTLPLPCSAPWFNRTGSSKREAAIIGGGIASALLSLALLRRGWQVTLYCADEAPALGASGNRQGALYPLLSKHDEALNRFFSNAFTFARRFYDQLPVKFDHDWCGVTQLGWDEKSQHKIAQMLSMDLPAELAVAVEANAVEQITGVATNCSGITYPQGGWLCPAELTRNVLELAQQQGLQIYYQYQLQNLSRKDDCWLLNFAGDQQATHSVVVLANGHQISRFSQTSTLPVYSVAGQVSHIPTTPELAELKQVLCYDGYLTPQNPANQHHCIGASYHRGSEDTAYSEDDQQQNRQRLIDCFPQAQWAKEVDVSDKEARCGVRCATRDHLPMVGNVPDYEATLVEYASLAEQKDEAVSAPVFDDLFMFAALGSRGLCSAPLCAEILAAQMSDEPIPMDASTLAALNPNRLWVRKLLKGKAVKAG
Experiment: X-ray crystal structure, […] Å
Assay type: binding

SMILES	X-ray crystal structure, 2.55 Å (co-purified FAD, none added, SAM bound, MnmC1 domain site)	X-ray crystal structure, 2.55 Å (crystals soaked with 5 mM SAM, FAD bound, MnmC2 domain site)
Cc1cc2nc3c(=O)[nH]c(=O)nc-3n(C[C@H](O)[C@H](O)[C@H](O)COP(=O)(O)OP(=O)(O)OC[C@H]3O[C@@H](n4cnc5c(N)ncnc54)[C@H](O)[C@@H]3O)c2cc1C [FAD]	All three MnmC structures unambiguously exhibited bound FAD (Figure 4A)	
C[S+](CC[C@H](N)C(=O)O)C[C@H]1O[C@@H](n2cnc3c(N)ncnc32)[C@H](O)[C@@H]1O (some centres unmarked) [SAM]		Our structures show that ecMnmC and ypMnmC bind SAM in an almost identical manner
